Legend:
[1] = logP determination by HPLC on a reversed-phase column (C18); assay type: physicochemical; settings: for logP^a): HPLC-MS method a); for log P: HPLC-MS
[2] = test system: Ctenocephalides felis; assay: Ctenocephalides felis - in vitro contact tests with adult cat fleas; assay type: in vivo; settings: application rate 5 μg/cm2 (=500 g/ha); after 48 h; fleas dead or moribund
Protocol: For the coating of the test tubes, 9 mg of active ingredient are first dissolved in 1 ml of acetone p.a. and then diluted to the desired concentration with acetone p.a. 250 μl of the solution are distributed homogeneously on the inner walls and base of a 25 ml test tube by turning and rocking on an orbital shaker (rocking rotation at 30 rpm for 2 h). With 900 ppm active ingredient solution and internal surface area 44.7 cm^2, given homogeneous distribution, an area-based dose of 5 μg/cm^2 is achieved.
After the solvent has evaporated off, the tubes are populated with 5-10 adult cat fleas (Ctenocephalides felis), sealed with a perforated plastic lid and incubated in a horizontal position at room temperature and ambient humidity. After 48 h, efficacy is determined. To this end, the test tubes are stood upright and the fleas are knocked to the base of the tube. Fleas which remain motionless at the base or move in an uncoordinated manner are considered to be dead or moribund.
100% efficacy means that all the fleas were dead or moribund. 0% efficacy means that no fleas were harmed.

[3] = test system: Boophilus microplus; assay: Boophilus microplus - injection test; assay type: in vivo; settings: application rate 20 μg/animal; injection into engorged adult female ticks; after 7 days
Outline: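 Five engorged adult female cattle ticks each received a 1 μl abdominal injection of compound solution in dimethyl sulphoxide. Fertile egg laying was assessed at 7 days, with doubtful eggs incubated about 42 days until hatch. 0% efficacy means all eggs fertile.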

[4] = test system: Ctenocephalides felis; assay: Ctenocephalides felis - oral test; assay type: in vivo; settings: application rate 100 ppm in citrated cattle blood; after 2 days
Outline: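 Roughly 20 unfed adult C. felis imbibe compound-dosed citrated cattle blood (DMSO formulation) across parafilm from a cylinder above their gauze chamber; percentage mortality recorded at day 2.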

[5] = test system: Lucilia cuprina; assay: Lucilia cuprina test; assay type: in vivo; settings: application rate 100 ppm; L1 larvae; after 2 days
Outline: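 Mortality (%) of first-instar blowfly larvae, about 20 per vessel, recorded 2 days after exposure to compound-treated minced horsemeat. Compound dissolved in dimethyl sulphoxide, then water-diluted to the desired concentration.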

[6] = test system: Musca domestica; assay: Musca domestica test; assay type: in vivo; settings: application rate 100 ppm; adult houseflies; after 2 days
Protocol: Solvent: dimethyl sulphoxide
To produce an appropriate active ingredient formulation, 10 mg of active ingredient are mixed with 0.5 ml of dimethyl sulphoxide, and the concentrate is diluted with water to the desired concentration.
Vessels containing a sponge treated with sugar solution and the active ingredient formulation of the desired concentration are populated with 10 adult houseflies (Musca domestica).
After 2 days, the kill in % is determined. 100% means that all of the flies have been killed; 0% means that none of the flies have been killed.

[7] = test system: Myzus persicae; assay: Myzus persicae - spray test; assay type: in vivo; settings: Chinese cabbage leaf discs, after 6 days
Protocol: Solvent: 78 parts by weight of acetone and 1.5 parts by weight of dimethylformamide
Emulsifier: alkylaryl polyglycol ether
To produce an appropriate active ingredient formulation, 1 part by weight of active ingredient is dissolved using the specified parts by weight of solvent and made up with water containing an emulsifier concentration of 1000 ppm until the desired concentration is attained. To produce further test concentrations, the preparation is diluted with emulsifier-containing water.
Discs of Chinese cabbage leaves (Brassica pekinensis) infested by all stages of the green peach aphid (Myzus persicae) are sprayed with an active ingredient formulation of the desired concentration.
After 6 days, efficacy in % is determined. 100% means that all the aphids have been killed; 0% means that none of the aphids have been killed.

[8] = test system: Phaedon cochleariae; assay: Phaedon cochleariae - spray test; assay type: in vivo; settings: larvae on Chinese cabbage leaf discs, after 7 days
Outline: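 Mortality of mustard beetle larvae was scored as % at day 7 on Brassica pekinensis leaf discs. Discs had been treated by spraying at the desired concentration, using an acetone/dimethylformamide solution diluted in water with 1000 ppm alkylaryl polyglycol ether, and dried before larvae were added.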

[9] = test system: Spodoptera frugiperda; assay: Spodoptera frugiperda - spray test; assay type: in vivo; settings: caterpillars on maize leaf discs, after 7 days
Outline: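 Percent mortality of Spodoptera frugiperda caterpillars scored 7 days after placing them on dried maize leaf discs sprayed at the desired concentration. Spray formulation: compound dissolved in acetone/dimethylformamide, made up with water containing 1000 ppm emulsifier.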

[10] = test system: Tetranychus urticae; assay: Tetranychus urticae - spray test, OP-resistant; assay type: in vivo; settings: bean leaf discs, after 6 days
Outline: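 Mortality (%) read on day 6 after spraying Phaseolus vulgaris leaf discs carrying all mite stages with formulations at the desired concentration. Formulation: active ingredient in acetone plus dimethylformamide, made up with emulsifier-containing water (1000 ppm alkylaryl polyglycol ether).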

[11] = reversed-phase column (C18), Table I-T3

| logP ([1]; HPLC, C18 reversed phase, acetonitrile/water with formic acid, EEC Directive 79/831 Annex V.A8) | SMILES | logP^a) [1] | logP^a) [1, 11] | efficacy [2] | efficacy (laying of fertile eggs) [3] | efficacy (kill) [4] | efficacy (kill) [5] | efficacy (kill) [6] | efficacy ([7]; application rate 100 g/ha) | efficacy ([8]; application rate 100 g/ha) | efficacy ([9]; application rate 100 g/ha) | efficacy ([10]; application rate 100 g/ha) | log P [1, 11] | efficacy ([7]; application rate 500 g/ha) | efficacy ([8]; application rate 500 g/ha) | efficacy ([9]; application rate 500 g/ha) | efficacy ([10]; application rate 500 g/ha) | logP^a) ([1]; reversed-phase column (C18)) |
| --- | --- | --- | --- | --- | --- | --- | --- | --- | --- | --- | --- | --- | --- | --- | --- | --- | --- | --- |
|  | Cc1cc(C(F)(C(F)(F)F)C(F)(F)F)cc(C(F)(F)F)c1-n1cc(-c2ccc(Cl)c(C(=O)NC3CSC3)c2)cn1 [I-T3-85] | 4.7 | 4.7 | 100% | 100% | 100% | 100% | 100% | 90% | 100% | 100% | 100% |  |  |  |  |  |  |
|  | N#CC1(NC(=O)c2cc(-c3cnn(-c4c(F)cc(C(F)(F)F)cc4Cl)c3)ccc2Cl)CC1 [I-T3-187] |  |  |  |  |  |  |  |  |  |  |  | 3.3 | 100% | 100% | 100% | 100% |  |
|  | O=C(NC1CC1)c1cc(-c2cnn(-c3c(F)cc(C(F)(F)F)cc3Cl)c2)ccc1Cl [I-T3-186] |  |  |  |  |  |  |  |  |  |  |  | 3.6 | 90% | 100% | 100% | 100% |  |
|  | N#Cc1cc(C(F)(F)F)cc(Cl)c1-n1cc(-c2ccc(Cl)c(C(=O)NC3CC3)c2)cn1 [I-T3-174] |  |  |  |  |  |  |  | 100% | 100% | 100% | 100% | 3.1 |  |  |  |  |  |
|  | O=C(NC1CC1)c1cc(-c2cnn(-c3ccc(C(F)(C(F)(F)F)C(F)(F)F)cc3Cl)c2)ccc1Cl [I-T3-31] | 4.3 | 4.3 | 100% | 100% | 100% | 100% | 100% |  |  |  |  |  |  | 100% | 100% | 100% |  |
|  | Cc1cc(C(F)(C(F)(F)F)C(F)(F)F)cc(C(F)(F)F)c1-n1cc(-c2ccc(Cl)c(C(=O)NCC(F)(F)F)c2)cn1 [I-T3-84] | 4.7 | 4.7 | 100% | 100% | 100% | 100% | 100% |  | 100% | 100% | 100% |  |  |  |  |  |  |
| 5 | Cc1cc(C(F)(C(F)(F)F)C(F)(F)F)cc(C)c1-c1cc(-c2ccc(Cl)c(C(=O)NCC(F)(F)F)c2)on1 [I-T22-3] |  |  | 100% | 100% | 100% | 100% | 100% |  | 100% | 100% | 90% |  |  |  |  |  |  |
|  | CC[S+]([O-])c1cc(C(F)(F)F)cc(Cl)c1-n1cc(-c2ccc(Cl)c(C(=O)NC3CC3)c2)cn1 (centres unmarked) [I-T3-179] |  |  |  |  |  |  |  | 100% | 100% |  | 100% | 3.0 |  |  |  |  |  |
|  | Cc1ncc(-c2cnn(-c3c(Cl)cc(C(F)(F)F)cc3Cl)c2)cc1C(=O)NC1CC1 [I-T3-127] |  |  | 100% | 100% | 100% | 90% |  | 100% | 100% |  | 100% | 2.5 |  |  |  |  | 2.5 |

— US10150737B2, “Compounds for controlling arthropods” (priority 2013, dated 2018)
